Literature values, collected in article PMC5439695 (PLoS ONE, 2017).

Tested on: NRF2
Details: cited from earlier work

Compound | increase NRF2 TF activity, POD potency
O.[Br-].[Br-].c1cc[n+]2c(c1)-c1cccc[n+]1CC2 [Diquat dibromide monohydrate] | 5.17 log10(M)*-1
O=C(OC1CCCCC1)c1ccccc1C(=O)OC1CCCCC1 [Dicyclohexyl phthalate] | 4.18 log10(M)*-1
CC(=O)O[C@H]1CC[C@@]2(C)C(=CC[C@@H]3[C@@H]2CC[C@]2(C)C(C(C)=O)=CC[C@@H]32)C1 [Dehydropregnenolone acetate] | 4.85 log10(M)*-1
Phenol, isopropylated, phosphate (3:1) | 4.21 log10(M)*-1
